Earlier results, collected in patent US20240173254A1, “TASIPIMIDINE FORMULATIONS AND USE THEREOF” (ORION CORPORATION, priority 2021, published 2024).

Assays:
[1] = in vivo

COc1cccc2c1CCOC2C1=NCCN1 (centres unmarked) [tasipimidine, 2-(5-methoxyisochroman-1-yl)-4,5-dihydro-1H-imidazole]
elimination half-life (t1/2) compared with clonidine [1]: shorter elimination half-life (t1/2) than clonidine | relieving situational anxiety and fear triggered by noise or owner departure (dogs): effective
